Experimental data reported in patent US20070155687A1, “Methods and compositions for altering cell function” (Alltech, Inc., priority 2005, published 2007).

Key:
Format in all cases: in vivo
[1] = test system: Glutathione S-transferase, mu1 (Gstm1); assay: Intestinal gene expression: Gstm1; settings: mouse intestine; diet 1 ppm Se, 100 days; vs Se-deficient diets; negative = down; NS = not significant
Text: (§1) Animal Care. Male C57BL/6J mice were housed singly and started on the experimental diets described below immediately after weaning (21 days of age). The mice were maintained in the Shared Aging Rodent Facility at the William S. Middleton Memorial Veterans Administration Medical Center (Madison, Wis.). Temperature and humidity were maintained at constant levels. Room light was controlled to provide 12-hr cycles of light and dark.
(§2) Experimental diets were created by Harlan Teklad (Madison, Wis.). Selenium content of the diets was determined by Covance Inc. (Madison, Wis.). Five (5) animals were included in each of the following treatment groups: a diet deficient in selenium (SD); a diet supplemented with selenomethionine (SM, obtained from Sigma, St. Louis, Mo.) such that the final selenium content of the diet was one (1) part per million; a diet supplemented with sodium selenite (SS, Sigma) such that the final concentration of selenium in this diet was one (1) part per million; or a diet supplemented with the yeast selenium SEL-PLEX (SP, Alltech, Lexington, Ky), such that the final concentration of selenium in this diet was one (1) part per million. SEL-PLEX. […]
(§3) Tissue sample preparation and microarray analysis. […] For intestinal expression studies, the intestine was flushed twice with saline solution and small intestine was measured and divided in three equal segments. […]

[2] = test system: Glutathione Peroxidase 1; assay: Intestinal gene expression (microarray): Glutathione Peroxidase 1; settings: mouse intestine; diet 1 ppm Se, 100 days; vs selenium deficient; all p < 0.01
Text: as §1, §2, §3

[3] = test system: Nicastrin; assay: Cerebral cortex gene expression: Nicastrin; settings: mouse cerebral cortex; diet 1 ppm Se, 100 days; * significant relative to Se-deficient animals, P < 0.01
Text: as §1, §2, §3

[4] = test system: Glutathione S-transferase, mu3 (Gstm3); assay: Intestinal gene expression: Gstm3; settings: mouse intestine; diet 1 ppm Se, 100 days; vs Se-deficient diets; negative = down; NS = not significant
Text: as §1, §2, §3

[5] = test system: Complement component 1, q subcomponent, alpha polypeptide, C1qa; assay: Cerebral cortex gene expression: C1qa; settings: mouse cerebral cortex; diet 1 ppm Se, 100 days; vs selenium deficient; * = significant, p<0.01
Text: as §1, §2, §3

[6] = test system: Cathepsin Z; assay: Cerebral cortex gene expression: Cathepsin Z; settings: mouse cerebral cortex; diet 1 ppm Se, 100 days; * downregulation significant relative to Se-deficient mice
Text: as §1, §2, §3

[7] = test system: Complement component 1, q subcomponent, gamma polypeptide, C1qg; assay: Cerebral cortex gene expression: C1qg; settings: mouse cerebral cortex; diet 1 ppm Se, 100 days; vs selenium deficient; * = significant, p<0.01
Text: as §1, §2, §3

[8] = test system: Growth arrest and DNA-damage-inducible 45 gamma. (Gadd45g); assay: Intestinal gene expression: Gadd45g; settings: mouse intestine, diet 1 ppm Se, 100 days, vs selenium deficient, negative = down
Text: as §1
Experimental diets were created by Harlan Teklad (Madison, Wis.). Selenium content of the diets was determined by Covance Inc. (Madison, Wis.). Five (5) animals were included in each of the following treatment groups: a diet deficient in selenium (SD); a diet supplemented with selenomethionine (SM, obtained from Sigma, St. Louis, Mo.) such that the final selenium content of the diet was one (1) part per million; a diet supplemented with sodium selenite (SS, Sigma) such that the final concentration of selenium in this diet was one (1) part per million; or a diet supplemented with the yeast selenium SEL-PLEX (SP, Alltech, Lexington, Ky), such that the final concentration of selenium in this diet was one (1) part per million. SEL-PLEX. Mice were provided with water and their respective diet ad libitum for 100 days. Diets were stored at the dark at 4° C. and fresh diet was added to feeder twice weekly.
Tissue sample preparation and microarray analysis. Mice were killed at 100 days of age by cervical dislocation. For intestinal expression studies, the intestine was flushed twice with saline solution and small intestine was measured and divided in three equal segments. A 3-cm region of the middle segment of the small intestine corresponding to the jejunum (˜300 mg of tissue) was cut and rinsed again with physiological saline to completely remove contents, flash frozen in liquid nitrogen and stored at −80° C. For brain (e.g., cerebral cortex) studies, the cerebral cortex was separated from the surrounding brain tissue and was flash frozen in liquid nitrogen and stored at −80° C. […]

[9] = test system: Glutathione S-transferase, mu2 (Gstm2); assay: Intestinal gene expression: Gstm2; settings: mouse intestine; diet 1 ppm Se, 100 days; vs Se-deficient diets; negative = down; NS = not significant
Text: as §1, §2, §3

[10] = test system: Glutathione S-transferase, alpha 3 (Gsta3); assay: Intestinal gene expression: Gsta3; settings: mouse intestine; diet 1 ppm Se, 100 days; vs Se-deficient diets; negative = down; NS = not significant
Text: as §1, §2, §3

[11] = test system: SOD1; assay: Intestinal gene expression: SOD1; settings: mouse intestine; diet 1 ppm Se, 100 days; vs selenium deficient
Text: as §1, §2, §3

[12] = test system: type II iodothyronine deiodinase, (Dio2); assay: Intestinal gene expression: Dio2; settings: mouse intestine; diet 1 ppm Se, 100 days; vs selenium deficient
Text: as §1, §2, §3

[13] = test system: transforming growth factor beta 2 (TGF-β2); assay: Intestinal gene expression: TGF-β2; settings: mouse intestine; diet 1 ppm Se, 100 days; compared to controls
Text: as §1, §2, §3

[14] = test system: Prohibitin (Phb); assay: Intestinal gene expression: Prohibitin; settings: mouse intestine; diet 1 ppm Se, 100 days; vs selenium deficient; p<0.05
Text: as §1, §2, §3

[15] = test system: Neurogenin 3 (Neurog3); assay: Intestinal gene expression: Neurog3; settings: mouse intestine; diet 1 ppm Se, 100 days; vs selenium deficient
Text: as §1, §2, §3

[16] = test system: Thioredoxin Reductase 1 (Trx-1); assay: Intestinal gene expression: Thioredoxin Reductase 1; settings: mouse intestine; diet 1 ppm Se, 100 days; vs selenium deficient; all p < 0.01
Text: as §1, §2, §3

| SMILES | FC Gstm1 expression [1] [fold] | fold change (FC) in Glutathione Peroxidase 1 gene expression [2] [fold] | FC Nicastrin expression [3] | FC Gstm3 expression [4] [fold] | FC C1qa expression [5] [fold] | FC Cathepsin Z expression [6] | FC C1qg expression [7] [fold] | FC Gadd45g expression ([8]; listed as SS) | FC Gstm2 expression [9] [fold] | FC Gsta3 expression [10] [fold] | enhanced expression of SOD1 [11] [fold] | Dio2 expression, down-regulation [12] | FC Gadd45g expression [8] | FC Gadd45g expression ([8]; listed as SM) | TGF-β2 expression, upregulated [13] | Prohibitin (Phb) expression, upregulated [14] [fold] | Neurog3 expression, upregulated [15] | fold increase in expression of the Thioredoxin Reductase 1 gene [16] [fold] |
| --- | --- | --- | --- | --- | --- | --- | --- | --- | --- | --- | --- | --- | --- | --- | --- | --- | --- | --- |
| O=[Se](O)O [Sod-sel, sodium selenite] | −2.4 | 4.1 | −1.67* fold | −2.7 | −1.18 | −1.30* fold | −1.07 | −2.0 (p < 0.01) fold | −2.1 | −2.3 | 1.92 | – | – | – | – | – | – | – |
| C[Se]CC[C@H](N)C(=O)O [SeM, selenomethionine] | – | 4.9 | 1.04 fold | – | −1.11 | −1.13 fold | 1.0 | – | – | – | – | no ability to alter the expression levels | decreased expression | −1.5 (p < 0.05) fold | not altered | 1.6 | no significant alteration | 1.8 |
